From article PMC10287695, “Non-covalent inhibitors of thioredoxin glutathione reductase with schistosomicidal activity in vivo” (Nature Communications, 2023)
“And” between values parts separate entries of the source, which are not always exact repeats. Equal entries are not always repeated.

Columns and labels:
TGR [1] = biological target: T1, TGR (Schistosoma mansoni, UniProt Q962Y6); experiment: NADPH dependence of inhibition; format: biochemical; settings: panel b, replicates
T1 construct: made in house
T1 sequence (Q962Y6 1-598): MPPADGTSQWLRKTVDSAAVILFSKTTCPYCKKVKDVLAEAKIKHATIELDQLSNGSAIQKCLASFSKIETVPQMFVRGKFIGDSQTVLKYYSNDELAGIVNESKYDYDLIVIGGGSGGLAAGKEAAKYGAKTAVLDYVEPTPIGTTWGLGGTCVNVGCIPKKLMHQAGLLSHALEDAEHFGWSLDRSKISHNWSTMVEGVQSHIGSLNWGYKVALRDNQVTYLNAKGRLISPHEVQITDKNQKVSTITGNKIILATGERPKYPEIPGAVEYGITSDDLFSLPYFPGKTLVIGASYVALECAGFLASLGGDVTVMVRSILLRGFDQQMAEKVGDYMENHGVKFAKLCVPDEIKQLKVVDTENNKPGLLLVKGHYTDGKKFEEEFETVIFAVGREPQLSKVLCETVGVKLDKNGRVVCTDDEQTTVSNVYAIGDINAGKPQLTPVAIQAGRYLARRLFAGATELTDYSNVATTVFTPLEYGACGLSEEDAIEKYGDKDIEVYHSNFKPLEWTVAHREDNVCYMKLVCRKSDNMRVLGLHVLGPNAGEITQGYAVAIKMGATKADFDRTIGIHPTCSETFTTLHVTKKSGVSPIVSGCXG
Description: TGR was incubated at room temperature with inhibitor in the presence or absence of 100 µM NADPH for 15 min. DTNB (3 mM) and NADPH (100 µM) were added, and the reaction was monitored at A412 for 5 min to determine reaction rate. The assay was done in triplicate.

TGR [2] = biological target: T2, TGR (Schistosoma mansoni, UniProt Q962Y6, X597U); experiment: NADPH consumption (oxidase activity); format: biochemical, S. mansoni; settings: replicates
T2 construct: made in house
Method in brief: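 Enzyme (500 nM) preincubated 30 min with compound (TRi-1, Stattic 50 µM; AF 20 µM) and 100 µM NADPH, desalted, then mixed with 100 µM NADPH; NADPH consumption read at 340 nm. Other compounds (50 µM) run without desalting, preincubation 30 min or 2 h.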

TGR [3] = biological target: T2, TGR; experiment: Superoxide production (pyrogallol red); format: biochemical, S. mansoni; settings: replicates
Method in brief: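 TGR (500 nM) with 100 µM NADPH and 20–50 µM inhibitor was preincubated at room temperature for 30 min or 2 h. Samples were then added to 50 µM pyrogallol red with 300 µM NADPH, ± SOD, and A340/A540 were followed for 2 h.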

[4] = tested on: S. mansoni adult worms in mice; experiment: Schistosomicidal efficacy in infected mice, adult worms (42 d.p.i.); format: in vivo; settings: for Egg burden, Treated, individual mice / Worm burden, Treated, individual mice: Adult worm, listed as 8VP192; for Egg burden, Treated, individual mice: eggs per 50 mg liver (Fig. 6); for decrease in egg burden / decrease in worm burden: mice
Description: (§1) To assess the efficacy of the compounds in vivo against juvenile and adult worms, five female Swiss-Webster mice were randomly assigned for the control and experiment groups using a randomization tool embedded in GraphPad Prism. Mice were percutaneously exposed for 1 h to about 80 S. mansoni cercariae. Three- and six-weeks post infection, respectively, for juvenile and adult worms, mice were treated depending on their weight with formulations of the compounds, while the control mice received only the vehicle. Compounds were formulated with 10% DMSO and 10% Tween-80, and vortexed to obtain a uniform mixture. The mixture was sonicated twice for 5 min each time using a digital ultrasonic cleaner heated to 50 °C. Sodium chloride 0.9% (80% normal saline) was added to the mixture, briefly vortexed and sonicated one more time using the same conditions as previous. The investigators were blinded by which group of mice received a treatment and the vehicle, as injection was done by technicians from the Comparative Research Center of Rush University Medical Center. Using a 26 G, 3/8 in intradermal bevel needle, each mouse was administered intraperitoneally with 100 µl of the formulated compound suspension at 50 mg/kg, 100 mg/kg and 200 mg/kg. Mice treated three weeks post infection for juvenile worms were euthanized three weeks post treatment and mice treated six weeks post infection were euthanized one week post treatment with 0.018 ml of Euthasol and 5.85 mg/ml heparin and perfused. The mesenteric and hepatic portal veins of the mice were carefully scanned under the microscope to extract any remaining S. mansoni adult worms and worm burdens were determined. Egg burden was determined by weighing 50 mg of liver tissue from each of treated and control mice. The liver tissues were digested with 5% KOH at 37 °C overnight and washed twice with PBS. The number of eggs per 50 mg of liver tissue was determined using a Keyence BZ-X800 microscope using the egg autofluorescence.

[5] = tested on: S. mansoni juvenile worms in mice; experiment: Schistosomicidal efficacy in infected mice, juvenile worms (21 d.p.i.); format: in vivo
Description: as §1

[6] = 1 x 100 mg/kg i.p. at 42 d.p.i.
[7] = 2 x 100 mg/kg i.p. (1: bid at 42 d.p.i.; 6: at 42 and 45 d.p.i.)
[8] = mice, 2 x 100 mg/kg at 21 d.p.i. (juvenile worms)

For `C#CCN(Cc1nc(-c2ccccc2)oc1C)[C@@H]1C[C@@H]2C[C@H]([C@H]1C)C2(C)C` [Compound 6], the “Rate, no NADPH” value (TGR [1]; preincubation no NADPH) was 0.02684 and 0.02786 and 0.03567, the “Rate, with NADPH” value (TGR [1]; preincubation with NADPH) was 0.00166 and 0.0006764 and 0.001495 and the “NADPH consumption (rate/ΔOD340)” value (TGR [2]) was -0.0004895 and -0.0006543 and -0.0006565. The “Superoxide production, Pyrogallol red consumption monitored ΔA540” value (TGR [3]; condition not given) was -0.0001397 and -0.0001399, the “Superoxide production, Pyrogallol red consumption monitored ΔA540” value (TGR [3]; second of the two columns per substance (condition not given)) was -5.466e-5 and -1.08e-5 and -2.977e-5 and the “Egg burden, Treated, individual mice” value ([4]; 1 x 100 mg/kg) was 2001 and 2098 and 2074 and 2073. The “Worm burden, Treated, individual mice” value ([4]; 1 x 100 mg/kg) was 18 and 19 and 11 and 14 and 12, the “Egg burden, Treated, individual mice” value ([4]; 2 x 100 mg/kg) was 2011 and 2073 and 2001 and 2098 and 2074 and the “Worm burden, Treated, individual mice” value ([4]; 2 x 100 mg/kg) was 23 and 26 and 25 and 20 and 22. The “decrease in egg burden” value [4, 6] was 3% and 2.8%, the “decrease in worm burden” value [4, 6] was 34% and 33.9% and the “decrease in egg burden” value [4, 7] was 18% and 18.2%. For the same compound, the “decrease in worm burden” value [4, 7] was 38% and 38.39%, the “Egg burden, Treated, individual mice” value ([5]; 2 x 100 mg/kg, Juvenile worm, eggs per 50 mg liver (Fig. 6), listed as 8VP192) was 2214 and 2212 and 2241 and 2153 and 2264 and the “Worm burden, Treated, individual mice” value ([5]; 2 x 100 mg/kg, Juvenile worm, listed as 8VP192) was 28 and 25 and 23 and 18 and 26. For the same compound, the “decrease in egg burden” value [5, 8] was 6.8% and 7% and the “decrease in worm burden” value [5, 8] was 15.5% and 16%.
